What was measured:
[1] = test system: 1a(TN) 5'UTR-NS5A recombinant virus; test: High-throughput DAA treatment assay of infected Huh7.5 cells, 1a(TN)5-5A virus; assay type: cell-based, hepatitis C virus; conditions: for EC50 fold-difference relative to J6/JFH1, more sensitive: 1a(TN)5-5A virus more sensitive than J6/JFH1; for EC50 fold-difference from J6/JFH1: 1a(TN)5-5A virus, difference in sensitivity compared to J6/JFH1
Experimental: (§1) Huh7.5 cells in 96-well culture plates were infected with 5′UTR-NS5A specific genotype(isolate) recombinants. For details on the 5-5A virus stocks see FIG. 3. J6/JFH1 was a first-passage stock with no mutations in the ORF. Cultures were treated with seven protease inhibitors and the NS5A inhibitor daclatasvir. Values are means of triplicates in the experiment with ±SEM.
(§2) HCV DAAs were purchased from Acme Bioscience and dissolved in dimethyl sulfoxide (Sigma). High throughput treatment assays have been previously established. Concentration-response curves, EC50 values, and 95% confidence interval were calculated in GraphPad Prism 5 as described. Cytotoxicity assays to determine the non-cytotoxic dose range of the anti-HCV drugs were performed.
(§3) Since no mutations appeared in the NS3 protease region in first-passage 5-5A recombinants, these culture viruses could be ideal models for studying the efficacy of PIs in a genotype-specific manner. We thus generated virus stocks from first-passage 1a(H77 and TN) and second-passage 3a(S52), 4a(ED43), 5a(SA13), and 6a(HK6a) 5-5A viruses (FIG. 3) for PI treatment experiments. Additionally, we generated a first-passage stock of 2a J6/JFH1. We confirmed that virus stocks used for treatment were without NS3 protease mutations (FIGS. 5-9). We tested virus sensitivity to the most advanced PIs: telaprevir (VX-950), boceprevir (SCH503034), asunaprevir (BMS-650032), simeprevir (TMC435350), vaniprevir (MK-7009), faldaprevir (BI201335), and MK-5172. […] The median effective concentration (EC50) representing the efficacy of drugs against the treated viruses was calculated from the concentration-response curves (FIGS. 2, 4 and 10). For a given inhibitor, EC50 fold-differences relative to J6/JFH1 were calculated for each genotype recombinant and used to describe whether a recombinant was more sensitive (fold-difference <1) or resistant (fold-difference >1) than J6/JFH1.

[2] = test system: HCV genotype 1-6 recombinant viruses; test: High-throughput DAA treatment assay of infected Huh7.5 cells, whole panel of genotype 1-6 recombinant viruses; assay type: cell-based, hepatitis C virus; conditions: for Inhibition of genotype 1-6 recombinant viruses: infected Huh7.5 cells, concentration-response
Experimental: as §1, §2, §3

[3] = test system: 4a(ED43) 5'UTR-NS5A recombinant virus; test: High-throughput DAA treatment assay of infected Huh7.5 cells, 4a(ED43)5-5A virus; assay type: cell-based, hepatitis C virus; conditions: for EC50 fold-difference relative to J6/JFH1, more sensitive: 4a(ED43)5-5A virus more sensitive than J6/JFH1; for EC50 fold-difference relative to J6/JFH1, more resistant: 4a(ED43)5-5A virus more resistant than J6/JFH1
Experimental: as §1, §2, §3

[4] = test system: 3a(S52) 5'UTR-NS5A recombinant virus; test: High-throughput DAA treatment assay of infected Huh7.5 cells, 3a(S52)5-5A virus; assay type: cell-based, hepatitis C virus; conditions: 3a(S52)5-5A virus more resistant (less sensitive) than J6/JFH1
Experimental: as §1, §2, §3

[5] = test system: J6/JFH1 (HCV genotype 2a recombinant); test: High-throughput DAA treatment assay of infected Huh7.5 cells, J6/JFH1 virus; assay type: cell-based; conditions: Hepatitis C virus, first-passage 2a J6/JFH1 stock, read-out: EC50 against J6/JFH1
Experimental: as §1, §2, §3

[6] = test system: 6a(HK6a) 5'UTR-NS5A recombinant virus; test: High-throughput DAA treatment assay of infected Huh7.5 cells, 6a(HK6a)5-5A virus; assay type: cell-based, hepatitis C virus; conditions: for EC50 fold-difference relative to J6/JFH1, more sensitive: 6a(HK6a)5-5A virus more sensitive than J6/JFH1; for EC50 fold-difference from J6/JFH1: 6a(HK6a)5-5A virus, difference in sensitivity compared to J6/JFH1
Experimental: as §1, §2, §3

[7] = test system: 5a(SA13) 5'UTR-NS5A recombinant virus; test: High-throughput DAA treatment assay of infected Huh7.5 cells, 5a(SA13)5-5A virus; assay type: cell-based, hepatitis C virus; conditions: for EC50 fold-difference relative to J6/JFH1, more sensitive: 5a(SA13)5-5A virus more sensitive than J6/JFH1; for EC50 fold-difference from J6/JFH1: 5a(SA13)5-5A virus, difference in sensitivity compared to J6/JFH1
Experimental: as §1, §2, §3

[8] = test system: 1a(H77) 5'UTR-NS5A recombinant virus; test: High-throughput DAA treatment assay of infected Huh7.5 cells, 1a(H77)5-5A virus; assay type: cell-based, hepatitis C virus; conditions: for EC50 fold-difference relative to J6/JFH1, more sensitive: 1a(H77)5-5A virus more sensitive than J6/JFH1; for EC50 fold-difference from J6/JFH1: 1a(H77)5-5A virus, difference in sensitivity compared to J6/JFH1
Experimental: as §1, §2, §3

SMILES	EC50 fold-difference relative to J6/JFH1, more sensitive [1]	Inhibition of genotype 1-6 recombinant viruses [2]	EC50 fold-difference relative to J6/JFH1, more sensitive [3] [fold]	EC50 fold-difference relative to J6/JFH1, more resistant [4] [fold]	EC50 [5] [nM]	EC50 fold-difference relative to J6/JFH1, more sensitive [6]	EC50 fold-difference relative to J6/JFH1, more sensitive [7]	EC50 fold-difference relative to J6/JFH1, more sensitive [8]	EC50 fold-difference relative to J6/JFH1, more resistant [3] [fold]	EC50 fold-difference from J6/JFH1 [1]	EC50 fold-difference from J6/JFH1 [6]	EC50 fold-difference from J6/JFH1 [7]	Potency relative to the other tested DAAs ([2]; all genotype recombinant viruses)	EC50 fold-difference from J6/JFH1 ([3]; 4a(ED43)5-5A virus, difference in sensitivity compared to J6/JFH1)	EC50 fold-difference from J6/JFH1 [8]
C=C[C@@H]1C[C@]1(NC(=O)[C@@H]1C[C@@H](Oc2ncc(OC)c3ccc(Cl)cc23)CN1C(=O)[C@@H](NC(=O)OC(C)(C)C)C(C)(C)C)C(=O)NS(=O)(=O)C1CC1 [asunaprevir]	2-3 fold	concentration-dependently inhibited	~5	~13	159	2-3 fold	2-3 fold	~5 fold	–	–	–	–	–	–	–
CC(C)(C)NC(=O)N[C@H](C(=O)N1C[C@H]2[C@@H]([C@H]1C(=O)NC(CC1CCC1)C(=O)C(N)=O)C2(C)C)C(C)(C)C (some centres unmarked) [boceprevir]	–	–	–	~2	589	~4 fold	–	–	~2	–	–	–	–	–	–
COc1ccc2c(O[C@@H]3C[C@H]4C(=O)N[C@]5(C(=O)NS(=O)(=O)C6CC6)C[C@H]5/C=C\CCCCN(C)C(=O)[C@@H]4C3)cc(-c3nc(C(C)C)cs3)nc2c1C [simeprevir]	–	concentration-dependently inhibited	~10	~27	91	–	–	~10 fold	–	less than 2 fold	less than 2 fold	less than 2 fold	–	–	–
CC[C@@H]1C[C@]1(NC(=O)[C@@H]1C[C@@H]2CN1C(=O)[C@H](C(C)(C)C)NC(=O)OCC(C)(C)CCCCc1cccc3c1CN(C3)C(=O)O2)C(=O)NS(=O)(=O)C1CC1 [vaniprevir]	3-6 fold	concentration-dependently inhibited	~10	~22	88	3-6 fold	3-6 fold	3-6 fold	–	–	–	–	–	–	–
C=C[C@@H]1C[C@]1(NC(=O)[C@@H]1C[C@@H]2CN1C(=O)[C@H](C(C)(C)C)NC(=O)O[C@@H]1C[C@H]1CCCCCc1nc3ccc(OC)cc3nc1O2)C(=O)NS(=O)(=O)C1CC1 [MK-5172]	–	concentration-dependently inhibited	–	~13	–	–	–	–	–	less than 2 fold	less than 2 fold	less than 2 fold	the most potent PI with broad activity against HCV genotypes 1-6	less than 2 fold	less than 2 fold
C=C[C@@H]1C[C@]1(NC(=O)[C@@H]1C[C@@H](Oc2cc(-c3csc(NC(=O)C(C)C)n3)nc3c(Br)c(OC)ccc23)CN1C(=O)[C@@H](NC(=O)OC1CCCC1)C(C)(C)C)C(=O)O [faldaprevir]	~4 fold	concentration-dependently inhibited	~44	~17	–	~4 fold	~10 fold	~12 fold	–	–	–	–	–	–	–
CCC[C@H](NC(=O)[C@@H]1[C@H]2CCC[C@H]2CN1C(=O)[C@@H](NC(=O)[C@@H](NC(=O)c1cnccn1)C1CCCCC1)C(C)(C)C)C(=O)C(=O)NC1CC1 [telaprevir]	–	–	–	~4	493	~4 fold	–	–	~4	–	–	–	–	–	–
COC(=O)N[C@H](C(=O)N1CCC[C@H]1c1nc(-c2ccc(-c3ccc(-c4c[nH]c([C@@H]5CCCN5C(=O)[C@@H](NC(=O)OC)C(C)C)n4)cc3)cc2)c[nH]1)C(C)C [daclatasvir]	–	–	~5	~6	–	–	–	–	–	< 3 fold	< 3 fold	< 3 fold	–	–	< 3 fold

Reference: patent US10106783B2, “HCV culture systems and direct-acting antiviral sensitivity” (Hvidovre Hospital, priority 2013, dated 2018)
